Data from ChEMBL document CHEMBL5252555, “Antimicrobial Polyketides from the Marine-Derived Fungus Spiromastix sp. SCSIO F190” (J Nat Prod, 2023).
Values after ≈ are worked out from the molar mass of the structure shown. Active and inactive are the calls of the source. The rule behind the calls is not given here.

What was measured:
HepG2 = test: Cytotoxicity against human HepG2 cells incubated for 48 hrs by CCK-8 assay; assay type: functional, cell-based
HeLa = test: Cytotoxicity against human HeLa cells incubated for 48 hrs by CCK-8 assay; assay type: functional, cell-based
Staphylococcus aureus [1] = test: Antibacterial activity against Staphylococcus aureus ATCC 29213 assessed as inhibition of bacterial growth incubated for 18 hrs by broth microdilution method; assay type: functional
Staphylococcus aureus [2] = test: Antibacterial activity against Staphylococcus aureus 16339 assessed as inhibition of bacterial growth incubated for 18 hrs by broth microdilution method; assay type: functional
Staphylococcus aureus [3] = test: Antibacterial activity against Staphylococcus aureus 1862 assessed as inhibition of bacterial growth incubated for 18 hrs by broth microdilution method; assay type: functional
Staphylococcus aureus [4] = test: Antibacterial activity against Staphylococcus aureus 3090 assessed as inhibition of bacterial growth incubated for 18 hrs by broth microdilution method; assay type: functional
Staphylococcus aureus [5] = test: Antibacterial activity against Staphylococcus aureus 991 assessed as inhibition of bacterial growth incubated for 18 hrs by broth microdilution method; assay type: functional
Staphylococcus aureus [6] = test: Antibacterial activity against Staphylococcus aureus 669 assessed as inhibition of bacterial growth incubated for 18 hrs by broth microdilution method; assay type: functional
Staphylococcus aureus [7] = test: Antibacterial activity against Staphylococcus aureus 745324 assessed as inhibition of bacterial growth incubated for 18 hrs by broth microdilution method; assay type: functional
Staphylococcus aureus [8] = test: Antibacterial activity against Staphylococcus aureus 16162 assessed as inhibition of bacterial growth incubated for 18 hrs by broth microdilution method; assay type: functional
Enterococcus faecalis [9] = test: Antibacterial activity against Enterococcus faecalis ATCC 29212 assessed as inhibition of bacterial growth incubated for 18 hrs by broth microdilution method; assay type: functional
Staphylococcus aureus [10] = test: Antibacterial activity against Staphylococcus aureus GDE4P037P assessed as inhibition of bacterial growth incubated for 18 hrs by broth microdilution method; assay type: functional
Enterococcus faecalis [11] = test: Antibacterial activity against Enterococcus faecalis 36950 assessed as inhibition of bacterial growth incubated for 18 hrs by broth microdilution method; assay type: functional
Micrococcus luteus = test: Antibacterial activity against Micrococcus luteus ML01 assessed as inhibition of bacterial growth incubated for 18 hrs by broth microdilution method; assay type: functional
Staphylococcus simulans = test: Antibacterial activity against Staphylococcus simulans AKA1 assessed as inhibition of bacterial growth incubated for 18 hrs by broth microdilution method; assay type: functional
Enterococcus faecium [12] = test: Antibacterial activity against Enterococcus faecium 36235 assessed as inhibition of bacterial growth incubated for 18 hrs by broth microdilution method; assay type: functional
Bacillus subtilis = test: Antibacterial activity against Bacillus subtilis BS01 assessed as inhibition of bacterial growth incubated for 18 hrs by broth microdilution method; assay type: functional
Enterococcus faecium [13] = test: Antibacterial activity against Enterococcus faecium 35682 assessed as inhibition of bacterial growth incubated for 18 hrs by broth microdilution method; assay type: functional
Enterococcus gallinarum = test: Antibacterial activity against Enterococcus gallinarum 5F52C assessed as inhibition of bacterial growth incubated for 18 hrs by broth microdilution method; assay type: functional
Enterococcus faecium [14] = test: Antibacterial activity against Enterococcus faecium 36711 assessed as inhibition of bacterial growth incubated for 18 hrs by broth microdilution method; assay type: functional
Staphylococcus aureus [15] = test: Antibacterial activity against Staphylococcus aureus 718306 assessed as inhibition of bacterial growth incubated for 18 hrs by broth microdilution method; assay type: functional
Staphylococcus aureus [16] = test: Antibacterial activity against Staphylococcus aureus 6917 assessed as inhibition of bacterial growth incubated for 18 hrs by broth microdilution method; assay type: functional
Staphylococcus aureus [17] = test: Antibacterial activity against methicillin-resistant Staphylococcus aureus assessed as inhibition of bacterial growth incubated for 18 hrs by broth microdilution method; assay type: functional
[18] = Cytotoxicity against human LX2 cells incubated for 48 hrs by CCK-8 assay; assay type: toxicity, cell-based; details: lx-2, 48 h
RBE = test: Cytotoxicity against human RBE cells incubated for 48 hrs by CCK-8 assay; assay type: functional, cell-based
HCT-116 = test: Cytotoxicity against human HCT-116 cells incubated for 48 hrs by CCK-8 assay; assay type: functional, cell-based
MCF7 = test: Cytotoxicity against human MCF7 cells incubated for 48 hrs by CCK-8 assay; assay type: functional, cell-based
A549 = test: Cytotoxicity against human A549 cells incubated for 48 hrs by CCK-8 assay; assay type: functional, cell-based
HUVEC = test: Cytotoxicity against HUVEC cells incubated for 48 hrs by CCK-8 assay; assay type: toxicity, cell-based; details: human

SMILES	Activity (HepG2)	Activity (HeLa)	MIC (Staphylococcus aureus [1])	MIC (Staphylococcus aureus [2])	MIC (Staphylococcus aureus [3])	MIC (Staphylococcus aureus [4])	MIC (Staphylococcus aureus [5])	MIC (Staphylococcus aureus [6])	MIC (Staphylococcus aureus [7])	MIC (Staphylococcus aureus [8])	MIC (Enterococcus faecalis [9])	MIC (Staphylococcus aureus [10])	MIC (Enterococcus faecalis [11])	MIC (Micrococcus luteus)	MIC (Staphylococcus simulans)	MIC (Enterococcus faecium [12])	MIC (Bacillus subtilis)	MIC (Enterococcus faecium [13])	MIC (Enterococcus gallinarum)	MIC (Enterococcus faecium [14])	other results
CCCc1c(Cl)c(OC)c(Cl)c(Oc2c(Cl)c(O)c(Cl)c3c2C(=O)O[C@H](C)C3)c1OC	inactive	inactive	4 µg/mL (≈ 7.84 µM)	4 µg/mL (≈ 7.84 µM)	4 µg/mL (≈ 7.84 µM)	4 µg/mL (≈ 7.84 µM)	4 µg/mL (≈ 7.84 µM)	4 µg/mL (≈ 7.84 µM)	4 µg/mL (≈ 7.84 µM)	4 µg/mL (≈ 7.84 µM)	8 µg/mL (≈ 15.7 µM)	8 µg/mL (≈ 15.7 µM)	4 µg/mL (≈ 7.84 µM)	2 µg/mL (≈ 3.92 µM)	4 µg/mL (≈ 7.84 µM)	16 µg/mL (≈ 31.4 µM)	2 µg/mL (≈ 3.92 µM)	32 µg/mL (≈ 62.7 µM)	4 µg/mL (≈ 7.84 µM)	8 µg/mL (≈ 15.7 µM)	MIC (Staphylococcus aureus [15]): 8 µg/mL (≈ 15.7 µM); MIC (Staphylococcus aureus [16]): 8 µg/mL (≈ 15.7 µM); MIC (Staphylococcus aureus [17]): 4 µg/mL (≈ 7.84 µM); Activity [18]: Non-Toxic; Activity (RBE): inactive; Activity (HCT-116): inactive; Activity (MCF7): inactive; Activity (A549): inactive; Activity (HUVEC): Non-Toxic
CCCc1c(O)c(Oc2c(Cl)c(O)c(Cl)c3c2C(=O)O[C@H](C)C3)cc(OC)c1Cl	inactive	inactive	8 µg/mL (≈ 17.3 µM)	16 µg/mL (≈ 34.7 µM)	16 µg/mL (≈ 34.7 µM)	8 µg/mL (≈ 17.3 µM)	8 µg/mL (≈ 17.3 µM)	16 µg/mL (≈ 34.7 µM)	16 µg/mL (≈ 34.7 µM)	16 µg/mL (≈ 34.7 µM)	32 µg/mL (≈ 69.3 µM)	32 µg/mL (≈ 69.3 µM)	16 µg/mL (≈ 34.7 µM)	8 µg/mL (≈ 17.3 µM)	8 µg/mL (≈ 17.3 µM)	32 µg/mL (≈ 69.3 µM)	8 µg/mL (≈ 17.3 µM)	16 µg/mL (≈ 34.7 µM)	16 µg/mL (≈ 34.7 µM)	16 µg/mL (≈ 34.7 µM)	MIC (Staphylococcus aureus [15]): 16 µg/mL (≈ 34.7 µM); MIC (Staphylococcus aureus [16]): 16 µg/mL (≈ 34.7 µM); MIC (Staphylococcus aureus [17]): 8 µg/mL (≈ 17.3 µM); Activity [18]: Non-Toxic; Activity (RBE): inactive; Activity (HCT-116): inactive; Activity (MCF7): inactive; Activity (A549): inactive; Activity (HUVEC): Non-Toxic
